Where two headings read alike, the source gives them in different places.
Legend:
[1] = Population PK of trazodone and gabapentin as single agents in mice; format: in vivo; conditions: for Vd/F / k el: male, mouse, plasma; for D 1 (duration of the zero‐order absorption) / k 12 (intercompartment rate constant) / k 21 (intercompartment rate constant): male mice, fasting, population PK estimate; for Inter‐individual variability ω2 of V / Inter‐individual variability ω2 of k / Inter‐individual variability ω2 of k12: mice, population PK variance estimate
plasma protein [2] = conditions: cited from earlier work
plasma protein [3] = conditions: cited from earlier work; remark: listed apart in the source
[4] = test system: patients with diabetes with peripheral neuropathy / painful distal symmetrical polyneuropathy; conditions: cited from earlier work
[5] = test system: thermal hyperalgesia in CCI rat model; conditions: cited from earlier work
[6] = test system: acetic acid‐induced writhings in male CD‐1 mice; assay: Acetic acid‐induced writhing test in mice with PK/PD model; conditions: for interindividual variability in the k 2, percent coefficient of variation: single‐agent model
[7] = 31 patients, oral trazodone 50 or 100 mg/day for 2 weeks
[8] = combination model, interaction (synergism), trazodone‐gabapentin 0.075–1.5, 0.15–1.5 mg/kg
[9] = combination model, pure additivity, trazodone‐gabapentin 0.075–1.5, 0.15–1.5 mg/kg
[10] = combination model, pure additivity, trazodone‐gabapentin 0.5–5, 1.5–15 mg/kg
[11] = gabapentin 10, 30 and 100 mg/kg
[12] = single model, gabapentin i.p. 1.5, 5 and 15 mg/kg

## O=c1n(CCCN2CCN(c3cccc(Cl)c3)CC2)nc2ccccn12 [Trazodone]
[1]; 10 mg/kg
  Vd/F: 5.95 L/kg
  k el: 0.000347 s⁻¹
[1]; trazodone 1, 3 and 10 mg/kg
  D 1 (duration of the zero‐order absorption): 0.0833 h
  k 12 (intercompartment rate constant): 0.982 h⁻¹
  k 21 (intercompartment rate constant): 1.51 h⁻¹
  Inter‐individual variability ω2 of V: 0.0526
  Inter‐individual variability ω2 of k: 0.00899
  Inter‐individual variability ω2 of k12: 0.577
Plasma protein [2]; human, ref internal unpublished data
  plasma protein binding: 97%
Plasma protein [3]; mouse, ref internal unpublished data
  plasma protein binding: 89%
[4]; [7]
  patients who experienced complete relief: 22.6%
  patients who experienced symptomatic relief: 61.3%
[4]; six patients with diabetes affected by peripheral neuropathy, 100 mg/day
  effect on pain and numbness: good effect in pain relief and numbness
[5]
  effect on thermal hyperalgesia: dose‐dependent analgesic effect
[6]; [8]
  Interindividual variance ω2 of k2: 1.42
  k 2 (potency parameter): 182000 M⁻¹ s⁻¹
[6]; [9]
  Interindividual variability ω2 of k2: 1.43
  k 2 (potency parameter): 212000 M⁻¹ s⁻¹
[6]; [10]
  Interindividual variability ω2 of k2: 1.40
  k 2 (potency parameter): 170000 M⁻¹ s⁻¹
[6]; single model, trazodone o.s. 0.075, 0.15, 0.5, 1.5, 2.5 and 4.5 mg/kg
  k 2 (potency parameter): 182000 M⁻¹ s⁻¹
[6]; single model, trazodone o.s. 0.075-4.5 mg/kg
  Interindividual variability ω2 of k2: 1.42
[6]
  interindividual variability in the k 2, percent coefficient of variation: 119
[6]; trazodone alone 0.075 or 0.15 mg/kg o.s.
  antinociceptive effect (number of writhes vs vehicle): ineffective
[6]; trazodone alone 0.5 or 1.5 mg/kg o.s., p < 0.001
  antinociceptive effect (number of writhes vs vehicle): significant reduction of the writhes number

## NCC1(CC(=O)O)CCCCC1 [Gabapentin]
[1]; [11]
  D 1 (duration of the zero‐order absorption): 0.167 h
  k 12 (intercompartment rate constant): 0.935 h⁻¹
  k 21 (intercompartment rate constant): 0.110 h⁻¹
  Inter‐individual variability ω2 of V: 0.00287
  Inter‐individual variability ω2 of k: 0.337
  Inter‐individual variability ω2 of k12: 1.43
[1]; 100 mg/kg
  Vd/F: 0.846 L/kg
  k el: 3.11e-05 s⁻¹
Plasma protein [2]; humans
  plasma protein binding: not protein‐bound
Plasma protein [3]; mice
  plasma protein binding: not protein‐bound
[6]; [8]
  Interindividual variance ω2 of k2: 1.78
  k 2 (potency parameter): 817 M⁻¹ s⁻¹
[6]; [9]
  Interindividual variability ω2 of k2: 1.67
  k 2 (potency parameter): 1350 M⁻¹ s⁻¹
[6]; [10]
  Interindividual variability ω2 of k2: 1.71
  k 2 (potency parameter): 667 M⁻¹ s⁻¹
[6]; gabapentin alone 1.5 mg/kg i.p.
  antinociceptive effect (number of writhes vs vehicle): ineffective
[6]; gabapentin alone 5 or 15 mg/kg i.p., p < 0.001
  antinociceptive effect (number of writhes vs vehicle): significant reduction of the writhes number
[6]; [12]
  Interindividual variability ω2 of k2: 1.97
  k 2 (potency parameter): 765 M⁻¹ s⁻¹
[6]
  interindividual variability in the k 2, percent coefficient of variation: 140
